Source: US20220202725A1, “Modified or Targeted Release Formulations of Linaclotide” (Ironwood Pharmaceuticals, Inc., priority 2015, published 2022)
Where no end group is shown, it is not given here.

Columns and labels:
[1] = tested on: bladder afferents and detrusor smooth muscle of CVH mice; experiment: Exogenous chemical stimulation of bladder afferents and bladder muscle (carbachol, αβMe-ATP, capsaicin); type: in vivo, C57/BL6 mice; conditions: vs vehicle
Protocol: (§1) Male C57 BL/6 mice were used in all experiments. Colitis was induced by administration of TNBS as described previously (Brierley et al., (2011) J. Physiol, 15: 3575-3593, incorporated herein by reference in its entirety). Briefly, 13-week-old mice were administered an intra-colonic enema of 0.1 mL TNBS (130 μg/mL in 30% EtOH) via a polyethylene catheter inserted 3 cm from the anus of isoflurane anaesthetized mice. Mice were then individually housed and observed daily for changes in body weight, physical appearance and behavior. Histological examination of mucosal architecture, cellular infiltrate, crypt abscesses, and goblet cell depletion confirmed TNBS-induced significant damage by day 3-post treatment, largely recovered by day 7 and fully recovered at the day 28-time point (Brierley et al., (2008) Gastroenterology, 134: 2059-69, incorporated herein by reference). High-threshold nociceptors from mice at the 28 day time point display significant mechanical hypersensitivity, lower mechanical activation thresholds and display hyperalgesia and allodynia. As such, they are therefore termed ‘chronic visceral hypersensitivity’ (CVH) mice.
The chemosensitivity of bladder afferents was also tested following isolation of pelvic afferents and catheterisation of the bladder described above. Following an equilibration period, when bladder afferent responses to ramp distension are stable, the bladder was distended to a physiological pressure of 6 mmHg above baseline. At this point, the saline perfusion is stopped but the outflow tap remains closed as to maintain the volume in the bladder. The bladder is maintained in this state to accommodate the increase in volume for 45 minutes whilst the baseline intravesical pressure and afferent firing stabilize.
Following the equilibration period, the bath perfusion is briefly turned off and a bolus dose of agonist is applied. Carbachol (1 μM), αβMe-ATP (30 μM), and capsaicin (10 μM) were applied in series with a 1 hr washout period between each dose.
Chemosensitive responses were measured as the number of action potentials crossing a pre-set threshold at a given time following agonist administration. The intravesical pressure was determined as the change from baseline pressure at a given time following agonist administration.
Data are expressed as mean with the SEM, and n is the number of animals. Data were analyzed using unpaired t-test to determine significance when comparing single points or a two-way analysis of variance (ANOVA) when comparing between experimental groups throughout a ramp distension or exogenous agonist protocol. Differences were considered significant at P<0.05. […] Muscle compliance is calculated by plotting intravesical pressure against intravesical volume, which is in turn determined from the time taken to distend to a particular pressure.
Whole nerve multifiber afferent nerve activity was quantified using the spike 2 software, which counted the number of action potentials crossing a pre-set threshold. Data are expressed as mean±SEM. n indicates the number of individual animals. Data were analyzed using Prism 5 software (GraphPad Software, San Diego, Calif., USA) where appropriate, un-paired t-tests were used, or two-way analysis of variance (ANOVA) followed by posthoc tests. Differences were considered significant at a level of *P<0.05, **P<0.01 and ***P<0.001.

[2] = tested on: bladder afferents of CVH mice; experiment: Ex-vivo afferent recordings from bladder pelvic afferents during ramp distension; type: in vivo, C57/BL6 mice; conditions: vs vehicle
Protocol: as §1
Pelvic bladder afferents are classified by their ability to respond to urinary bladder ramp distension. During bladder distension there is an increase in intravesical pressure and a corresponding increase in the afferent neuron activity. The mechanosensitivity of these afferents was tested in bladder preparations from healthy and CVH mice as well as CVH mice that received either a 2 week treatment of once daily oral gavage of vehicle or of linaclotide (3 μg/kg/day) by ramp distension to a final intravesical pressure of 30 mmHg.
Recordings were made from healthy and CVH mice, which had been chronically administered either vehicle or linaclotide (3 μg/kg/day) for a total duration to 2 weeks, and which were euthanized via CO2 inhalation and cervical dislocation. The animal was cut in two at the level of L2, removing vascular connections via the aorta and vena cava, yet ensuring the kidneys and ureters remained intact. […]

[3] = human volunteers; cited from earlier work
[4] = tested on: retrogradely traced bladder thoracolumbar (TL) DRG neurons; experiment: Patch clamp recordings from retrogradely traced bladder DRG neurons; type: in vivo, C57/BL6 mice; conditions: TL DRG neurons from CVH mice, once daily oral gavage for 2 weeks, vs vehicle
Protocol: Laparotomy was performed on anaesthetized (2-3% isofluorane/0.3 L/min O2) mice. […]; ThermoFisher product nr. C22842 (former LifeTechnologies)) was used for subserosal injection (2-3 ul per injection) in descending colon or dorsal and lateral bladder using a 30G Hamilton needle. Incision was closed with Prolene 6/0 suture (Johnson&Johnson product nr. 8636G). All mice were given 100 ul of buprenorphine (1:12) and Baytril (1:20) for post-operative care and left for 4 days before humanely killed for DRG cell culture.
Recordings were made from healthy and CVH mice. CVH mice received chronic administration of either vehicle or linaclotide (3 μg/kg/day) for a total duration of 2 weeks. Mice were euthanized via CO2 inhalation and DRGs from thoracolumbar (T10-L1) and lumbosacral (L6-S1) regions removed and digested with 3 mg mL−1 collagenase II (Gibco) and 4 mg mL−1 dispase (Gibco) for 30 min at 37° C., followed by 3 mg mL−1 collagenase II only for 10 min at 37° C. […]
Recordings were made similarly to those we have described previously (Brierley et al., 2011, ibid). […] Signals were amplified by using an Axopatch 200A amplifier, digitized with a Digidata 1322A and recorded using pCLAMP 9 software (Molecular Devices, Sunnyvale, Calif., USA). […] In current clamp studies a series of depolarizing pulses (500 ms, 10 pA step) were applied from a holding potential ([…]) and the rheobase (or amount of current (pA) required for action potential generation) determined. The number of action potentials at rheobase and 2× rheobase was also determined and the resting membrane potential was noted. […]
Action potentials were recorded in current clamp mode and the rheobase, or the amount of injected current (pA) required to elicit an action potential determined. The numbers of action potentials at rheobase and 2× rheobase were also recorded as well as noting the resting membrane potential. Data were analyzed using Prism 5 software (GraphPad Software, San Diego, Calif., USA) where appropriate, un-paired t-tests or one-way analysis of variance (ANOVA) followed by posthoc tests. […]

CCEYCCNPACTGCY (cysteine pairing not given here) [linaclotide]
bladder afferent response to capsaicin ([1]; capsaicin 10 μM, once daily oral gavage for 2 weeks, p≤0.01): significantly reduced | bladder contraction response to carbachol ([1]; carbachol 1 μM, once daily dosing for 2 weeks): significantly reduced | bladder afferent response to carbachol ([1]; carbachol 1 μM, once daily oral gavage for 2 weeks, p≤0.001): significantly reduced | bladder contraction response to αβMe-ATP ([1]; αβMe-ATP 30 μM, once daily dosing for 2 weeks): significantly reduced | bladder afferent response to αβMe-ATP ([1]; αβMe-ATP 30 μM, once daily oral gavage for 2 weeks, p≤0.001): significantly reduced | afferent nerve activity over the time course of ramp distension ([2]; once daily oral gavage 3 μg/kg/day for 2 weeks, FIG. 2A, P≤0.001): significant decrease | peak afferent response to distension ([2]; once daily oral gavage 3 μg/kg/day for 2 weeks, FIG. 2B, P≤0.05): significant decrease | bladder compliance ([2]; once daily oral gavage for 2 weeks, FIG. 2C): no change | oral dose found in feces [3]: about 5% | resting membrane potential [4]: no effect | number of action potentials at 2× rheobase ([4]; p=0.02): significantly decreases | rheobase ([4]; p=0.02): significantly increases
